Source: PubChem BioAssay (NCI)
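The compound was tested at five concentrations on cells cultured in 96-well plates, with a 48-hour exposure period. Here, GI50 denotes the concentration required for 50% inhibition of growth. TGI: concentration producing complete growth inhibition.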

Tests used:
Test in all cases: inhibition of tumour cell growth, NCI panel, 48 h
SF-539 CNS = system: SF-539 CNS
UACC-62 melanoma = system: UACC-62 melanoma
MOLT-4 leukemia = system: MOLT-4 leukemia
HS 578T breast = system: HS 578T breast
K-562 leukemia = system: K-562 leukemia
UO-31 renal = system: UO-31 renal
SK-MEL-28 melanoma = system: SK-MEL-28 melanoma
HOP-92 NSCLC = system: HOP-92 NSCLC
M19-MEL melanoma = system: M19-MEL melanoma
SNB-78 CNS = system: SNB-78 CNS

Work on CCOC(=O)C1=C(Nc2ccc(OC)cc2)C(N)=NC1=N yielded a GI50 (SF-539 CNS) of 2.15 µM, a TGI (SF-539 CNS) of 6.27 µM and a GI50 (UACC-62 melanoma) of 2.85 µM. The TGI (UACC-62 melanoma) was greater than 100 µM, the GI50 (MOLT-4 leukemia) was 4.38 µM and the TGI (MOLT-4 leukemia) was greater than 100 µM. It also gave a GI50 (HS 578T breast) of 4.17 µM, a TGI (HS 578T breast) greater than 100 µM and a GI50 (K-562 leukemia) of 3.02 µM. For the same compound, the TGI (K-562 leukemia) was greater than 100 µM, the GI50 (UO-31 renal) was 6.29 µM and the TGI (UO-31 renal) was greater than 100 µM. The GI50 (SK-MEL-28 melanoma) was 6.89 µM, the TGI (SK-MEL-28 melanoma) was greater than 100 µM and the GI50 (HOP-92 NSCLC) was 2.56 µM. For the same compound, the TGI (HOP-92 NSCLC) was greater than 100 µM.

Clc1ccc2c(NC3CCC(N4CCCCC4)CC3)ccnc2c1 (centres undefined) gave a TGI (SF-539 CNS) of 36.2 µM, a TGI (UACC-62 melanoma) of 32.2 µM and a TGI (MOLT-4 leukemia) greater than 100 µM. For the same compound, the TGI (HS 578T breast) was 56.4 µM, the TGI (K-562 leukemia) was 62.1 µM and the TGI (UO-31 renal) was 28 µM. It also gave a TGI (SK-MEL-28 melanoma) of 36.8 µM and a TGI (HOP-92 NSCLC) of 29.9 µM.

With CC1Cc2c(Cl)ncnc2N(C)c2ccccc21 (centres undefined) the GI50 (SF-539 CNS) was 4.56 µM, the TGI (SF-539 CNS) was 37.2 µM and the GI50 (UACC-62 melanoma) was 3.32 µM. It also gave a TGI (UACC-62 melanoma) of 12.8 µM, a GI50 (MOLT-4 leukemia) of 3.46 µM and a TGI (MOLT-4 leukemia) greater than 100 µM. For the same compound, the GI50 (HS 578T breast) was 1.36 µM, the TGI (HS 578T breast) was 47.3 µM and the GI50 (K-562 leukemia) was 4.44 µM. The TGI (K-562 leukemia) was greater than 100 µM, the GI50 (UO-31 renal) was 3.37 µM and the TGI (UO-31 renal) was 89.1 µM. It also gave a GI50 (SK-MEL-28 melanoma) of 1.82 µM, a TGI (SK-MEL-28 melanoma) of 26.5 µM and a GI50 (HOP-92 NSCLC) of 2.34 µM. The TGI (HOP-92 NSCLC) was 7.17 µM.

COc1cc(OC)c(/C=C/C(=O)c2c(OC)cc(OC)cc2OC)c(OC)c1 gave a GI50 (SF-539 CNS) of 1.27 µM, a TGI (SF-539 CNS) of 3.31 µM and a GI50 (UACC-62 melanoma) of 0.414 µM. It also gave a TGI (UACC-62 melanoma) of 4.14 µM, a GI50 (MOLT-4 leukemia) of 1.53 µM and a TGI (MOLT-4 leukemia) greater than 100 µM. It also gave a GI50 (HS 578T breast) of 1.39 µM, a TGI (HS 578T breast) of 6.37 µM and a GI50 (K-562 leukemia) of 0.394 µM. For the same compound, the TGI (K-562 leukemia) was greater than 100 µM, the GI50 (UO-31 renal) was 2.23 µM and the TGI (UO-31 renal) was greater than 100 µM. For the same compound, the GI50 (SK-MEL-28 melanoma) was 0.855 µM, the TGI (SK-MEL-28 melanoma) was 5.24 µM and the GI50 (HOP-92 NSCLC) was 0.534 µM. It also gave a TGI (HOP-92 NSCLC) of 6.5 µM.

CC(NNC(=S)N1CCN(c2ccccn2)CC1)c1nccc2ccccc12 (centres undefined) was tested, and the TGI (SF-539 CNS) was 6.43 µM, the TGI (UACC-62 melanoma) was 2.35 µM and the TGI (MOLT-4 leukemia) was 10.3 µM. The TGI (HS 578T breast) was 61.6 µM, the TGI (K-562 leukemia) was 14.2 µM and the TGI (UO-31 renal) was 8.34 µM. For the same compound, the TGI (SK-MEL-28 melanoma) was 18.5 µM and the TGI (HOP-92 NSCLC) was 7.79 µM.

Work on CCCCCCCCCCCCCCNCC(OC)OC yielded a TGI (M19-MEL melanoma) of 32.3 µM, a TGI (SF-539 CNS) of 30.9 µM and a TGI (UACC-62 melanoma) of 34.4 µM. For the same compound, the TGI (UO-31 renal) was 25.7 µM, the TGI (SK-MEL-28 melanoma) was 30.4 µM and the TGI (HOP-92 NSCLC) was 23.9 µM. The TGI (SNB-78 CNS) was 34.3 µM.

Compound CC(=O)OC1CC2(C)C(=CC1C1SCCS1)CCC1C2CCC2(C)C(OC(C)=O)CCC12 (centres undefined) has a TGI (SF-539 CNS) greater than 100 µM, a TGI (UACC-62 melanoma) greater than 100 µM and a TGI (MOLT-4 leukemia) greater than 100 µM. The TGI (HS 578T breast) was 49.9 µM, the TGI (K-562 leukemia) was greater than 100 µM and the TGI (UO-31 renal) was greater than 100 µM. For the same compound, the TGI (SK-MEL-28 melanoma) was greater than 100 µM and the TGI (HOP-92 NSCLC) was greater than 100 µM.
